Source: patent US8445224B2, “Method for assaying FTO (2-oxoglutarate dependent oxygenase) activity” (Isis Innovation Limited, priority 2007, dated 2013)

Molecular target: T1, FTO (Mus musculus, UniProt Q8BGW1)
T1 construct: His tag (pET-28a) with peptide linker (N); made in house; host or cells: E. coli BL21-Gold(DE3)
Test: 2-oxoglutarate decarboxylation (uncoupled 2-OG turnover) assay with purified FTO
Assay type: biochemical
Experimental: FTO was incubated with all necessary cofactors, in various buffers lacking a specific reagent (Fe^2+, ascorbate or DTT) and in the presence of N-oxalyl-glycine (NOG), a generic Fe^2+-2OG-dioxygenase inhibitor at a concentration of 0.5 mM. In addition to Fe^2+ (added in the form of (NH4)2Fe(II)(SO4)2) and 2OG, dithiothreitol (DTT) and sodium ascorbate were added to the reaction mixture: DTT is a reducing agent that helps to maintain Fe^2+.
These were diluted to a total volume of 100 μl with 50 mM TRIS, pH 7.5. All reagents were mixed and pipetted into a 5 ml plastic screw cap tube, the FTO was added to the tube as a separate drop. A 500 μl Eppendorf tube containing 200 μl Hyamine hydroxide (Fisher Scientific, CO2 trapping agent) was added to each tube and tubes were closed with a rubber septum. After incubation in an environmental shaker at 37° C. for half an hour, 200 μl methanol was added to the contents and the tubes were put on ice for 30 minutes to quench the reaction. The Eppendorf tubes containing the hyamine hydroxide were transferred to scintillation vials, mixed with 5 ml OptiPhase Liquid Scintillation Cocktail (Fisher Scientific) and total ^14C counts quantified using a Beckman L56500 Multi-Purpose Scintillation Counter.

T1 sequence (Q8BGW1 whole entry): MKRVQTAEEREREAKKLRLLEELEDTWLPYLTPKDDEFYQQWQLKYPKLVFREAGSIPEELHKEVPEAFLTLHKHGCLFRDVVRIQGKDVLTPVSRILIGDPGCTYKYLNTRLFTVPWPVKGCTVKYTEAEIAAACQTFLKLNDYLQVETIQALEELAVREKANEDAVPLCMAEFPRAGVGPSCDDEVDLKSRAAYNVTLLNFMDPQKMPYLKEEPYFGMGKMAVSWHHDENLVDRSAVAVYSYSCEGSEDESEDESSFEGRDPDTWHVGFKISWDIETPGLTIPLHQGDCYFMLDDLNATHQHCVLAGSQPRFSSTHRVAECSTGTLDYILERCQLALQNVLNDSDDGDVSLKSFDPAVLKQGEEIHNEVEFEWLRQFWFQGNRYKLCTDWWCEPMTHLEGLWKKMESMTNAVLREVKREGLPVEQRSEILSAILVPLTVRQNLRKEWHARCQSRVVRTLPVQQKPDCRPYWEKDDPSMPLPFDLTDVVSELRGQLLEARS

Inhibition of FTO 2-OG turnover (uncoupled) (no methylated DNA substrate) | Stimulation of FTO 2-OG turnover activity (uncoupled turnover) | Structure (SMILES)
did not inhibit | – | O=C(O)C(=O)N[C@H](Cc1ccccc1)C(=O)O [NOFD, N-oxalyl D-phenylalanine]
– | stimulated | O=S(=O)([O-])[O-].[Fe+2] [FeSO4]
